From ChEMBL document CHEMBL5532679, “Discovery and Characterization of RGH-122, a Potent, Selective, and Orally Bioavailable V1a Receptor Antagonist” (J Med Chem, 2024)

Columns and labels:
Vasopressin V1a receptor [1] = target: T1, Vasopressin V1a receptor (Homo sapiens, UniProt P37288)
Description: Displacement of [3H]vasopressin from human V1A receptor assessed as inhibition constant by Cheng-Prusoff equation analysis

in vitro [2] = details: Wistar, rat, microsomes
in vitro [3] = details: NMRI, mouse, microsomes
Vasopressin V1a receptor [4] = target: T1, Vasopressin V1a receptor; remark: listed apart in the source
Description: Antagonist activity at human V1A receptor expressed in human 1321N1 cells assessed as Ca2+ mobilization incubated for 15 mins by FLIPR calcium 5 assay

[5] = Apparent permeability of compound across apical to basal side in vinblastine treated human Caco-2 cells at 1 to 10 uM incubated for 15 to 60 mins by HPLC analysis
[6] = Efflux ratio of apparent permeability across basolateral to apical side over apical to basolateral side in vinblastine treated human Caco-2 cells at 1 to 10 uM incubated for 15 to 60 hrs by HPLC analysis
in vitro [7] = details: human
animal or person [8] = details: Mus musculus, NMRI, po, read-out: INH
animal or person [9] = details: Mus musculus, NMRI, po, read-out: INH; remark: listed apart in the source
[10] = target: Voltage-gated inwardly rectifying potassium channel KCNH2 (Homo sapiens, UniProt Q12809)
Voltage-gated inwardly rectifying potassium channel KCNH2, sequence (Q12809 whole entry): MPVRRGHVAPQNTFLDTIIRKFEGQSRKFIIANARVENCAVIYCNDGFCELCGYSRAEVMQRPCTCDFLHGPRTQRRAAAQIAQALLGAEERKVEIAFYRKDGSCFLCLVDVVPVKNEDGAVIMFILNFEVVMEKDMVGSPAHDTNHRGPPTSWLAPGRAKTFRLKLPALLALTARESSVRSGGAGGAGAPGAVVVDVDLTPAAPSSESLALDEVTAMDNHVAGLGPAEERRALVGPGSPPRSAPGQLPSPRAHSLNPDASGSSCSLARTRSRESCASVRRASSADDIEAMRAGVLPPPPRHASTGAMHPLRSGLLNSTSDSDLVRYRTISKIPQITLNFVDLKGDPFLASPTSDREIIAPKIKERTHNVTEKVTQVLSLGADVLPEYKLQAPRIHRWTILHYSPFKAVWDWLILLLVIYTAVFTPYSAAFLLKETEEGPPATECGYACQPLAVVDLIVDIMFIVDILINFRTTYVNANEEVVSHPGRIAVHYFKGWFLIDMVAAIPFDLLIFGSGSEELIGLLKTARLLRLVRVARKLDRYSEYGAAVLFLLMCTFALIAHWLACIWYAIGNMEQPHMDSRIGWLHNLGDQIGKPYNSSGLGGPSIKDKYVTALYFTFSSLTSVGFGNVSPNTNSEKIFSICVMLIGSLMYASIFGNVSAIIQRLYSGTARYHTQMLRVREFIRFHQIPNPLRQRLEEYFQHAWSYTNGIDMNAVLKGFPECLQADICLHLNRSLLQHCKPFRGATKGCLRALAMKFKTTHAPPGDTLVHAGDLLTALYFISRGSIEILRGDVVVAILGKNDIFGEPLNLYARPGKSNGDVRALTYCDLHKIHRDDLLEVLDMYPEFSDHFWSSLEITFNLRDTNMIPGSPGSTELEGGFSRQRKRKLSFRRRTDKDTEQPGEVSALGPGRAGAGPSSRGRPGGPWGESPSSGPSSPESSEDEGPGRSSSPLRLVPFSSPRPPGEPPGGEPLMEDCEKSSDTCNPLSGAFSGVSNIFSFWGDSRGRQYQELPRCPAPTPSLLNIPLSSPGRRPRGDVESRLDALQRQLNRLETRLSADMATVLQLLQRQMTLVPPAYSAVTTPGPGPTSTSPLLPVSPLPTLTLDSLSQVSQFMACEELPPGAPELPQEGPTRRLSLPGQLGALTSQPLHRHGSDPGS
Description: Inhibition of hERG expressed in CHO cells at -80 mV holding potential incubated for 7 to 10 mins by automated patch clamp method

T1 sequence (P37288 whole entry): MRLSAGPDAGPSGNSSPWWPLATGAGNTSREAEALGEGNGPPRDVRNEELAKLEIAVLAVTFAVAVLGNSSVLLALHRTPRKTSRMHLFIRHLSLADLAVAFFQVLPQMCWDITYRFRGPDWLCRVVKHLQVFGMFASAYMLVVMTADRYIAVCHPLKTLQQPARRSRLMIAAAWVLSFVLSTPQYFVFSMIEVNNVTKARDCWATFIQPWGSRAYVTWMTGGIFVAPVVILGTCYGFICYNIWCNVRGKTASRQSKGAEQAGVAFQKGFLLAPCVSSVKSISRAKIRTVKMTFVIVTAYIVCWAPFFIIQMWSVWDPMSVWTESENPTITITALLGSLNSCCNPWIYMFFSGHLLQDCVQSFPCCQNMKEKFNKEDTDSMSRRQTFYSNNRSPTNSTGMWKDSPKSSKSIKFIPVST

Row | SMILES | microsomal CLint at 1 µM (in vitro [2]) | microsomal CLint at 1 µM (in vitro [3]) | Papp A→B at 10 µM [5] | efflux ratio at 10 µM [6] | microsomal CLint at 1 µM (in vitro [7]; microsomes) | IC50 [10] | further results
1 | Clc1ccc2c(c1)CC(CNC1CCOCC1)Cc1nnc([C@H]3CC[C@H](Oc4ccccn4)CC3)n1-2 (some centres undefined) | 8 µL/min/mg | 6 µL/min/mg | 8.1 ×10⁻⁶ cm/s | 7.1 | 14 µL/min/mg |  | Ki (Vasopressin V1a receptor [1]): 2.3 nM; IC50 (Vasopressin V1a receptor [4]): 15 nM
2 | O[C@H]1Cc2cc(Cl)ccc2-n2c(nnc2[C@H]2CC[C@H](Oc3ccccn3)CC2)C1 | 18 µL/min/mg | 7 µL/min/mg | 20 ×10⁻⁶ cm/s |  |  | > 30000 nM | inhibition in vivo at 10 mg/kg (animal or person [8]): 92%; inhibition in vivo at 3 mg/kg (animal or person [9]): 84%
3 | c1ccc(O[C@H]2CC[C@H](c3nnc4n3-c3ccccc3CC3(C4)OCCO3)CC2)nc1 |  |  |  |  |  |  | inhibition in vivo at 10 mg/kg (animal or person [8]): 49%
4 | Clc1ccc2c(c1)CC(NC1COC1)Cc1nnc([C@H]3CC[C@H](Oc4ccccn4)CC3)n1-2 (some centres undefined) | 17 µL/min/mg | 14 µL/min/mg | 24 ×10⁻⁶ cm/s | 4.4 | 16 µL/min/mg |  | 
5 | CC(C)NCC1Cc2cc(Cl)ccc2-n2c(nnc2[C@H]2CC[C@H](Oc3ccccn3)CC2)C1 (some centres undefined) | 6 µL/min/mg | 8 µL/min/mg |  |  | 20 µL/min/mg |  | Ki (Vasopressin V1a receptor [1]): 2.8 nM; IC50 (Vasopressin V1a receptor [4]): 55 nM
6 | OC[C@H]1Cc2cc(Cl)ccc2-n2c(nnc2[C@H]2CC[C@H](Oc3ccccn3)CC2)C1 |  |  |  |  |  | 23000 nM | 
7 | CC(C)NC1Cc2cc(C#N)ccc2-n2c(nnc2[C@H]2CC[C@H](Oc3ccccn3)CC2)C1 (some centres undefined) |  |  |  |  |  |  | inhibition in vivo at 3 mg/kg (animal or person [9]): 56%
8 | CO[C@]1(C)CC[C@@H](c2nnc3n2-c2ccc(Cl)cc2CC2(C3)OCCO2)CC1 | 12 µL/min/mg | 16 µL/min/mg | 42 ×10⁻⁶ cm/s | 1 |  | > 30000 nM | inhibition in vivo at 10 mg/kg (animal or person [8]): 41%; inhibition in vivo at 3 mg/kg (animal or person [9]): 0%
9 | N[C@@H]1Cc2cc(Cl)ccc2-n2c(nnc2[C@H]2CC[C@H](Oc3ccccn3)CC2)C1 | 7 µL/min/mg | 9 µL/min/mg | 2.8 ×10⁻⁶ cm/s | 35 | 5 µL/min/mg | 16700 nM | 
10 | Clc1ccc2c(c1)CCCc1nnc([C@H]3CC[C@H](Oc4ccccn4)CC3)n1-2 |  |  |  |  |  |  | inhibition in vivo at 10 mg/kg (animal or person [8]): 42%; microsomal CLint at 1 µM (in vitro [7]; liver microsomes): 29 µL/min/mg
11 | Clc1ccc2c(c1)CC(NC1CCOCC1)Cc1nnc([C@H]3CC[C@H](Oc4ccccn4)CC3)n1-2 (some centres undefined) | 9 µL/min/mg | 15 µL/min/mg | 41 ×10⁻⁶ cm/s | 1.1 | 24 µL/min/mg |  | 
12 | Clc1ccc2c(c1)CC(CN1CCOCC1)Cc1nnc([C@H]3CC[C@H](Oc4ccccn4)CC3)n1-2 (some centres undefined) | 145 µL/min/mg | 101 µL/min/mg |  |  | 134 µL/min/mg |  | Ki (Vasopressin V1a receptor [1]): 0.4 nM; IC50 (Vasopressin V1a receptor [4]): 2.1 nM
13 | CNC1Cc2cc(Cl)ccc2-n2c(nnc2[C@H]2CC[C@H](Oc3ccccn3)CC2)C1 (some centres undefined) | 19 µL/min/mg | 24 µL/min/mg | 40 ×10⁻⁶ cm/s | 1.8 | 12 µL/min/mg |  | 
14 | CN1CCN(CC2Cc3cc(Cl)ccc3-n3c(nnc3[C@H]3CC[C@H](Oc4ccccn4)CC3)C2)CC1 (some centres undefined) | 3 µL/min/mg | 6 µL/min/mg | 8.6 ×10⁻⁶ cm/s | 7.5 | 11 µL/min/mg |  | Ki (Vasopressin V1a receptor [1]): 0.8 nM; IC50 (Vasopressin V1a receptor [4]): 7.1 nM
15 | FC1(F)CCC(NC2Cc3cc(Cl)ccc3-n3c(nnc3[C@H]3CC[C@H](Oc4ccccn4)CC3)C2)CC1 (some centres undefined) | 26 µL/min/mg | 37 µL/min/mg |  |  | 26 µL/min/mg |  | 
16 | CC(C)NC1Cc2cc(Cl)ccc2-n2c(nnc2[C@H]2CC[C@H](Oc3ccccn3)CC2)C1 (mixture of isomers) |  |  |  |  |  | 3700 nM | 
17 | CC(C)N[C@@H]1Cc2cc(Cl)ccc2-n2c(nnc2[C@H]2CC[C@H](Oc3ccccn3)CC2)C1 |  |  |  |  |  | 4000 nM | 
18 | CC(C)NC1Cc2cc(F)ccc2-n2c(nnc2[C@H]2CC[C@H](Oc3ccccn3)CC2)C1 (some centres undefined) |  |  |  |  |  |  | inhibition in vivo at 3 mg/kg (animal or person [9]): 58%
19 | CC(C)N[C@H]1Cc2cc(Cl)ccc2-n2c(nnc2[C@H]2CC[C@H](Oc3ccccn3)CC2)C1 |  |  |  |  |  | 3800 nM | 
20 | CN(C)CC1Cc2cc(Cl)ccc2-n2c(nnc2[C@H]2CC[C@H](Oc3ccccn3)CC2)C1 (some centres undefined) | 47 µL/min/mg | 39 µL/min/mg |  |  | 42 µL/min/mg |  | Ki (Vasopressin V1a receptor [1]): 0.5 nM; IC50 (Vasopressin V1a receptor [4]): 4.7 nM

Row | SMILES | microsomal CLint at 1 µM (in vitro [2]) | microsomal CLint at 1 µM (in vitro [3]) | Papp A→B at 10 µM [5] | efflux ratio at 10 µM [6] | microsomal CLint at 1 µM (in vitro [7]; microsomes) | IC50 [10] | further results
21 | OCC1Cc2cc(Cl)ccc2-n2c(nnc2[C@H]2CC[C@H](Oc3ccccn3)CC2)C1 (some centres undefined) |  |  |  |  |  | 21400 nM | 
22 | CN(C)CC(=O)NC1Cc2cc(Cl)ccc2-n2c(nnc2[C@H]2CC[C@H](Oc3ccccn3)CC2)C1 (mixture of isomers) | 6 µL/min/mg | 2 µL/min/mg |  |  | 0.2 µL/min/mg |  | 
23 | N#Cc1ccc2c(c1)CC1(Cc3nnc([C@H]4CC[C@H](Oc5ccccn5)CC4)n3-2)OCCO1 |  |  |  |  |  |  | inhibition in vivo at 10 mg/kg (animal or person [8]): 69%
24 | OC[C@@H]1Cc2cc(Cl)ccc2-n2c(nnc2[C@H]2CC[C@H](Oc3ccccn3)CC2)C1 |  |  |  |  |  | 19000 nM | 
25 | CNC1CCc2nnc([C@H]3CC[C@H](Oc4ccccn4)CC3)n2-c2ccc(Cl)cc21 (some centres undefined) |  |  | 9.3 ×10⁻⁶ cm/s | 6.8 |  |  | Ki (Vasopressin V1a receptor [1]): 1.3 nM; IC50 (Vasopressin V1a receptor [4]): 6.9 nM
26 | NC1Cc2cc(Cl)ccc2-n2c(nnc2[C@H]2CC[C@H](Oc3ccccn3)CC2)C1 (mixture of isomers) | 11 µL/min/mg | 14 µL/min/mg | 3 ×10⁻⁶ cm/s | 29 | 2 µL/min/mg |  | 
27 | Brc1ccc2c(c1)CC1(Cc3nnc([C@H]4CC[C@H](Oc5ccccn5)CC4)n3-2)OCCO1 |  |  |  |  |  |  | inhibition in vivo at 10 mg/kg (animal or person [8]): 99%
28 | CCN[C@@H]1Cc2cc(Cl)ccc2-n2c(nnc2[C@H]2CC[C@H](Oc3ccccn3)CC2)C1 | 15 µL/min/mg | 16 µL/min/mg | 24 ×10⁻⁶ cm/s | 1.4 | 21 µL/min/mg | 3500 nM | 
29 | NC1CCc2cc(Cl)ccc2-n2c1nnc2[C@H]1CC[C@H](Oc2ccccn2)CC1 (some centres undefined) |  |  |  |  |  |  | Ki (Vasopressin V1a receptor [1]): 8 nM; IC50 (Vasopressin V1a receptor [4]): 42 nM
30 | FC[C@@H]1Cc2cc(Cl)ccc2-n2c(nnc2[C@H]2CC[C@H](Oc3ccccn3)CC2)C1 |  |  |  |  |  | 12000 nM | 
31 | N[C@H]1Cc2cc(Cl)ccc2-n2c(nnc2[C@H]2CC[C@H](Oc3ccccn3)CC2)C1 | 36 µL/min/mg | 11 µL/min/mg | 2.6 ×10⁻⁶ cm/s | 44 | 4 µL/min/mg |  | 
32 | Fc1ccc2c(c1)CC1(Cc3nnc([C@H]4CC[C@H](Oc5ccccn5)CC4)n3-2)OCCO1 |  |  |  |  |  |  | inhibition in vivo at 10 mg/kg (animal or person [8]): 49%
33 | FC[C@H]1Cc2cc(Cl)ccc2-n2c(nnc2[C@H]2CC[C@H](Oc3ccccn3)CC2)C1 |  |  |  |  |  | 13000 nM | 
34 | Clc1ccc2c(c1)CC1(Cc3nnc([C@H]4CC[C@H](Oc5ccccn5)CC4)n3-2)OCCCO1 | 15 µL/min/mg | 27 µL/min/mg | 7 ×10⁻⁶ cm/s | 0.8 |  |  | inhibition in vivo at 10 mg/kg (animal or person [8]): 79%; inhibition in vivo at 3 mg/kg (animal or person [9]): 69%
35 | CC(C)NC1Cc2cc(Br)ccc2-n2c(nnc2[C@H]2CC[C@H](Oc3ccccn3)CC2)C1 (some centres undefined) |  |  |  |  |  |  | inhibition in vivo at 3 mg/kg (animal or person [9]): 64%
36 | NCC1Cc2cc(Cl)ccc2-n2c(nnc2[C@H]2CC[C@H](Oc3ccccn3)CC2)C1 (some centres undefined) | 25 µL/min/mg | 35 µL/min/mg |  |  | 48 µL/min/mg |  | Ki (Vasopressin V1a receptor [1]): 3.1 nM; IC50 (Vasopressin V1a receptor [4]): 15 nM
37 | O=C([C@H]1CC[C@H](c2nnc3n2-c2ccc(Cl)cc2CC2(C3)OCCO2)CC1)N1CCOCC1 | 3 µL/min/mg | 3 µL/min/mg | 1.3 ×10⁻⁶ cm/s | 29 |  |  | 
38 | CN(C)C1Cc2cc(Cl)ccc2-n2c(nnc2[C@H]2CC[C@H](Oc3ccccn3)CC2)C1 (some centres undefined) | 36 µL/min/mg | 37 µL/min/mg | 23 ×10⁻⁶ cm/s | 1.3 | 34 µL/min/mg |  | 
39 | FC(F)(F)c1ccc2c(c1)CC1(Cc3nnc([C@H]4CC[C@H](Oc5ccccn5)CC4)n3-2)OCCO1 |  |  |  |  |  |  | inhibition in vivo at 10 mg/kg (animal or person [8]): 76%
